The values below come from patent publication US6417186B1, “Substituted-phenyl ketone derivatives as IP antagonists” (Syntex (U.S.A.) LLC, priority 2000, dated 2002).

Each structure is given as a SMILES string.

`O=C(CCc1ccc(NC2=NCCN2)cc1)c1ccc(N2CCOCC2)cc1` [Example 3, 3-[4-(4,5-Dihydro-1H-imidazol-2-ylamino)phenyl]-1-(4-morpholin-4-ylphenyl)-propan-1-one] registered a melting point of 196 to 197.6 °C.

`CCOC(=O)N1CCN(c2ccc(C(=O)CCc3ccc(NC4=NCCN4)cc3)cc2)CC1` [Example 5, 3-[4-(4,5-Dihydro-1H-imidazol-2-ylamino)phenyl]-1-[4-(4-ethoxycarbonyl-piperazin-1-yl)phenyl]propan-1-one] showed a melting point of 150 to 151.2 °C.

By melting point is commonly meant the temperature of the solid-liquid transition.
